Consider eleven compounds from patent publication US12209102B2, “Heterocyclic compounds and uses thereof” (Kumquat Biosciences Inc., priority 2022, dated 2025).

A word on the IC50: it is the concentration that inhibits the measured activity by half.

Assay [1] has as its system GP2D cells. Nature of the assay: Ras cellular assay, growth of cells with K-Ras G12D mutation (CellTiter-Glo). The assay is classed as cell-based. Conditions: cell growth, Example 9, G12D mutation, read-out: IC50 against GP2D cells.
For assay [2], the system named is A549 cells. As to the kind of experiment: Ras cellular assay, growth of cells with K-Ras G12S mutation (CellTiter-Glo). As to conditions: Homo sapiens, cell growth, Example 9, G12S mutation, read-out: IC50 against A549 cells. Type of assay: cell-based. Summed up:
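Growth inhibition IC50 values come from four-parameter fits of CellTiter-Glo luminescence, read about 6 days after compound addition. G12S-mutant A549 cells (e.g. 800/well, RPMI-1640 + 10% heat-inactivated FBS) were plated in tissue-culture-treated or ultra-low-attachment 384-well format. Dosing began the following day with serial dilutions, e.g. 10 points, 3-fold.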
In general terms: ATP-based viability assays read luminescence as a measure of living cells.

Assay [3] concerns the target T1, K-Ras WT (Homo sapiens, UniProt P01116).
T1 construct: made in house; host or cells: E. coli BL21 (DE3)
Nature of the assay: HTRF resonance energy transfer assay, K-Ras WT / SOS1 interaction. Type of assay: biochemical. As to conditions: HTRF assay of Example 5; read-out: IC50 against K-Ras WT. A digest of the protocol:
(§1)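 Compounds, tested in duplicate at 10 μM down to 0.01 μM, were read after about 10 min or more by HTRF as the 665/620 nm emission ratio (337 nm excitation) to derive IC50. This ratio reports FRET between an anti-GST-Eu donor on GST-K-Ras (wild-type or mutant) and an anti-6His-XL665 acceptor on His-hSOS1. Buffer: ~5 mM HEPES pH 7.4, 150 mM NaCl, 1 mM DTT, 0.05% BSA, 0.0025% Igepal.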

Assay [4] concerns the target T2, K-Ras G12V (Homo sapiens, UniProt P01116, G12V).
T2 construct: made in house; host or cells: E. coli BL21 (DE3)
Nature of the assay: HTRF resonance energy transfer assay, K-Ras G12V / SOS1 interaction. The assay is classed as biochemical. As to conditions: HTRF assay of Example 5; read-out: IC50 against K-Ras G12V. A digest of the protocol: as §1
On the technique in general: In TR-FRET formats the signal depends on donor and acceptor labels being close together.

Assay [5] has as its target T3, K-Ras G12S (Homo sapiens, UniProt P01116, G12S).
T3 construct: made in house; host or cells: E. coli BL21 (DE3)
As to the kind of experiment: HTRF resonance energy transfer assay, K-Ras G12S / SOS1 interaction. Type of assay: biochemical. Conditions: HTRF assay of Example 5; read-out: IC50 against K-Ras G12S. Summed up: as §1

Assay [6] has as its system SW620 cells. Nature of the assay: Ras cellular assay, growth of cells with K-Ras G12V mutation (CellTiter-Glo). Type of assay: cell-based. As to conditions: Homo sapiens, SW-620; cell growth, Example 9, G12V mutation; read-out: IC50 against SW620 cells. A digest of the protocol:
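IC50 values came from a four-parameter fit of CellTiter-Glo viability, read roughly 6 days after dosing with e.g. a 10-point threefold dilution series. G12V-mutant SW620 cells (e.g. 800 per well) had been plated the previous day in RPMI-1640/10% heat-inactivated FBS, on tissue culture-treated or ultra-low attachment plates.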

In assay [7] the target is T4, K-Ras G12D (Homo sapiens, UniProt P01116, G12D).
T4 construct: made in house; host or cells: E. coli BL21 (DE3)
As to the kind of experiment: HTRF resonance energy transfer assay, K-Ras G12D / SOS1 interaction. Type of assay: biochemical. As to conditions: HTRF assay of Example 5; read-out: IC50 against K-Ras G12D. A digest of the protocol:
as §1

T4 sequence (P01116 1-188 isoform P01116-2 G12D): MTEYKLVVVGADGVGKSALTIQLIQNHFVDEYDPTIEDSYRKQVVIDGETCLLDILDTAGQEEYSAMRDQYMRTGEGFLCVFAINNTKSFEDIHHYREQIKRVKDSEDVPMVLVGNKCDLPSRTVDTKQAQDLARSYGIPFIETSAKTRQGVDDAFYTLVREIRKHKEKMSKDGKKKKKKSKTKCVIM
T1 sequence (P01116 1-188 isoform P01116-2): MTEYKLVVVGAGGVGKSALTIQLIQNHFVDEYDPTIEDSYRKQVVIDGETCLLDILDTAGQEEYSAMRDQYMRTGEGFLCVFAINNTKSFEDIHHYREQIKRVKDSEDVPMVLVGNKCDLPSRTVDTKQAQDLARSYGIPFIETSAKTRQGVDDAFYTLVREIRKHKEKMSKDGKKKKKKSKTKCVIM
T3 sequence (P01116 1-188 isoform P01116-2 G12S): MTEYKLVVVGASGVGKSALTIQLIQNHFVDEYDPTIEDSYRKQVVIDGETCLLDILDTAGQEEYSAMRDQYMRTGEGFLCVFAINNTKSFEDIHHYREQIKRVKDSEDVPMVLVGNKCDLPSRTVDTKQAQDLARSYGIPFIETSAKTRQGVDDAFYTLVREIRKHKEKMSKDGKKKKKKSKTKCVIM
T2 sequence (P01116 1-188 isoform P01116-2 G12V): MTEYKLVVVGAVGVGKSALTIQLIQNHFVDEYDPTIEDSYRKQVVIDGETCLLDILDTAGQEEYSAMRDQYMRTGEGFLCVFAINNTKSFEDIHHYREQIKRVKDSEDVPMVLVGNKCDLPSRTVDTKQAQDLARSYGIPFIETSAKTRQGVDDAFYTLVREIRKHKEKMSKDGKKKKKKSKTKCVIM

Turning to `N#Cc1c(N)sc2c(F)ccc(-c3c(Cl)c4c5c(nc(OC[C@@]67CCCN6C[C@H](F)C7)nc5c3F)N(C3CCN(C(=O)C5COC5)C3)CCO4)c12` (stereo partly drawn) [Compound 757, 2-amino-4-(8-chloro-10-fluoro-2-(((2R,7aS)-2-fluorotetrahydro-1H-pyrrolizin-7a(5H)-yl)methoxy)-4-(1-(oxetane-3-carbonyl)pyrrolidin-3-yl)-5,6-dihydro-4H-[1,4]oxazepino[5,6,7-de]quinazolin-9-yl)-7-fluorobenzo[b]thiophene-3-carbonitrile], the half-maximal inhibitory concentration (IC50) in assay [1] was less than 500 nM; in assay [2] it was less than 5000 nM; in assay [3], less than 100 nM; in assay [4], less than 100 nM; in assay [5] it was less than 100 nM; in assay [6], less than 5000 nM. Moreover, the half-maximal inhibitory concentration (IC50) in assay [7] is less than 100 nM.
As for `Cn1cc(N2CCOc3c(Cl)c(-c4ccc(F)c5sc(N)c(C#N)c45)c(F)c4nc(OC[C@@]56CCCN5C[C@H](F)C6)nc2c34)cn1` [Compound 765, 2-amino-4-(8-chloro-10-fluoro-2-(((2R,7aS)-2-fluorotetrahydro-1H-pyrrolizin-7a(5H)-yl)methoxy)-4-(1-methyl-1H-pyrazol-4-yl)-5,6-dihydro-4H-[1,4]oxazepino[5,6,7-de]quinazolin-9-yl)-7-fluorobenzo[b]thiophene-3-carbonitrile], the IC50 was less than 500 nM in assay [1]; less than 5000 nM in assay [2]; less than 100 nM in assay [3]; less than 100 nM in assay [4]; less than 100 nM in assay [5]; less than 5000 nM in assay [6]. The IC50 in assay [7] is less than 100 nM.
Take `C#Cc1c(F)ccc2cc(O)cc(-c3nc4c5c(nc(OC[C@@]67CCCN6C[C@H](F)C7)nc5c3F)N(C3CCOC3)CCN4)c12` (stereo partly drawn) [Compound 771, 5-ethynyl-6-fluoro-4-(4-fluoro-2-(((2R,7aS)-2-fluorotetrahydro-1H-pyrrolizin-7a(5H)-yl)methoxy)-10-(tetrahydrofuran-3-yl)-7,8,9,10-tetrahydro-1,3,6,7,10-pentaazacyclohepta[de]naphthalen-5-yl)naphthalen-2-ol]: the IC50 was less than 500 nM in assay [1]; less than 5000 nM in assay [2]; less than 100 nM in assay [3]; less than 100 nM in assay [4]; less than 100 nM in assay [5]; less than 5000 nM in assay [6]. The IC50 in assay [7] is less than 100 nM.
On to `N#Cc1c(N)sc2c(F)ccc(-c3c(Cl)c4c5c(nc(OC[C@@]67CCCN6C[C@H](F)C7)nc5c3F)N(C3CCN(C(=O)C[C@@H]5CCCO5)C3)CCO4)c12` (stereo partly drawn) [Compound 777, 2-amino-4-(8-chloro-10-fluoro-2-(((2R,7aS)-2-fluorotetrahydro-1H-pyrrolizin-7a(5H)-yl)methoxy)-4-(1-(2-((S)-tetrahydrofuran-2-yl)acetyl)pyrrolidin-3-yl)-5,6-dihydro-4H-[1,4]oxazepino[5,6,7-de]quinazolin-9-yl)-7-fluorobenzo[b]thiophene-3-carbonitrile], for which the IC50 is less than 500 nM in assay [1]; less than 5000 nM in assay [2]; less than 100 nM in assay [3]; less than 100 nM in assay [4]; less than 100 nM in assay [5]; less than 5000 nM in assay [6]. Moreover, in assay [7], the half-inhibitory concentration (IC50) is less than 100 nM.
With `N#Cc1c(N)sc2c(F)ccc(-c3c(Cl)c4c5c(nc(OC[C@@]67CCCN6C[C@H](F)C7)nc5c3F)N(C3CCN(C(=O)COC(F)F)C3)CCO4)c12` (stereo partly drawn) [Compound 785, 2-amino-4-(8-chloro-4-(1-(2-(difluoromethoxy)acetyl)pyrrolidin-3-yl)-10-fluoro-2-(((2R,7aS)-2-fluorotetrahydro-1H-pyrrolizin-7a(5H)-yl)methoxy)-5,6-dihydro-4H-[1,4]oxazepino[5,6,7-de]quinazolin-9-yl)-7-fluorobenzo[b]thiophene-3-carbonitrile], the IC50 in assay [1] was less than 500 nM; in assay [2], less than 5000 nM; in assay [3] it was less than 100 nM; in assay [4], less than 100 nM; in assay [5], less than 100 nM; in assay [6], less than 5000 nM. Also, the IC50 in assay [7] was less than 100 nM.
`N#Cc1c(N)sc2c(F)ccc(-c3c(Cl)c4c5c(nc(OC[C@@]67CCCN6C[C@H](F)C7)nc5c3F)N([C@H]3CCOC3)CCO4)c12` [Compound 793, 2-amino-4-(8-chloro-10-fluoro-2-(((2R,7aS)-2-fluorotetrahydro-1H-pyrrolizin-7a(5H)-yl)methoxy)-4-((S)-tetrahydrofuran-3-yl)-5,6-dihydro-4H-[1,4]oxazepino[5,6,7-de]quinazolin-9-yl)-7-fluorobenzo[b]thiophene-3-carbonitrile]: the 50% inhibitory concentration (IC50) was less than 500 nM in assay [1]; less than 5000 nM in assay [2]; less than 100 nM in assay [3]; less than 100 nM in assay [4]; less than 100 nM in assay [5]; less than 5000 nM in assay [6]. Moreover, the concentration for half-maximal inhibition (IC50) in assay [7] was less than 100 nM.
For `N#Cc1c(N)sc2c(F)ccc(-c3c(Cl)c4c5c(nc(OC[C@@]67CCCN6C[C@H](F)C7)nc5c3F)N([C@@H]3CCN(C(=O)C(F)F)C3)CCO4)c12` [Compound 796, 2-amino-4-(8-chloro-4-((R)-1-(2,2-difluoroacetyl)pyrrolidin-3-yl)-10-fluoro-2-(((2R,7aS)-2-fluorotetrahydro-1H-pyrrolizin-7a(5H)-yl)methoxy)-5,6-dihydro-4H-[1,4]oxazepino[5,6,7-de]quinazolin-9-yl)-7-fluorobenzo[b]thiophene-3-carbonitrile], the IC50 in assay [1] was less than 500 nM; in assay [2], less than 5000 nM; in assay [3], less than 100 nM; in assay [4], less than 100 nM; in assay [5], less than 100 nM; in assay [6], less than 5000 nM. Besides, the half-inhibitory concentration (IC50) in assay [7] was less than 100 nM.
With `N#Cc1c(N)sc2c(F)ccc(-c3c(Cl)c4c5c(nc(OC[C@@]67CCCN6C[C@H](F)C7)nc5c3F)N(CC3(C#N)CC3)CCO4)c12` [Compound 798, 2-amino-4-(8-chloro-4-((1-cyanocyclopropyl)methyl)-10-fluoro-2-(((2R,7aS)-2-fluorotetrahydro-1H-pyrrolizin-7a(5H)-yl)methoxy)-5,6-dihydro-4H-[1,4]oxazepino[5,6,7-de]quinazolin-9-yl)-7-fluorobenzo[b]thiophene-3-carbonitrile], the half-inhibitory concentration (IC50) is less than 500 nM in assay [1]; less than 5000 nM in assay [2]; less than 100 nM in assay [3]; less than 100 nM in assay [4]; less than 100 nM in assay [5]; less than 5000 nM in assay [6]. In addition, the half-inhibitory concentration (IC50) in assay [7] is less than 100 nM.
Turning to `N#Cc1c(N)sc2c(F)ccc(-c3c(Cl)c4c5c(nc(OC[C@@]67CCCN6C[C@H](F)C7)nc5c3F)N(C3COCCOC3)CCO4)c12` [Compound 803, 2-amino-4-(8-chloro-4-(1,4-dioxepan-6-yl)-10-fluoro-2-(((2R,7aS)-2-fluorotetrahydro-1H-pyrrolizin-7a(5H)-yl)methoxy)-5,6-dihydro-4H-[1,4]oxazepino[5,6,7-de]quinazolin-9-yl)-7-fluorobenzo[b]thiophene-3-carbonitrile], the half-maximal inhibitory concentration (IC50) is less than 500 nM in assay [1]; less than 5000 nM in assay [2]; less than 100 nM in assay [3]; less than 100 nM in assay [4]; less than 100 nM in assay [5]; less than 5000 nM in assay [6]. For the same compound, the 50% inhibitory concentration (IC50) in assay [7] was less than 100 nM.
As for `N#Cc1c(N)sc2c(F)ccc(-c3c(Cl)c4c5c(nc(OC[C@@]67CCCN6C[C@H](F)C7)nc5c3F)N(CCC(F)F)CCO4)c12` [Compound 807, 2-amino-4-(8-chloro-4-(3,3-difluoropropyl)-10-fluoro-2-(((2R,7aS)-2-fluorotetrahydro-1H-pyrrolizin-7a(5H)-yl)methoxy)-5,6-dihydro-4H-[1,4]oxazepino[5,6,7-de]quinazolin-9-yl)-7-fluorobenzo[b]thiophene-3-carbonitrile], the IC50 in assay [1] is less than 500 nM; in assay [2] it was less than 5000 nM; in assay [3], less than 100 nM; in assay [4] it was less than 100 nM; in assay [5], less than 100 nM; in assay [6] it was less than 5000 nM. Also, in assay [7], the half-inhibitory concentration (IC50) is less than 100 nM.
As to `N#Cc1c(N)sc2c(F)ccc(-c3c(Cl)c4c5c(nc(OC[C@@]67CCCN6C[C@H](F)C7)nc5c3F)N(C3CCN(C(=O)COC5CC5)C3)CCO4)c12` (stereo partly drawn) [Compound 812, 2-amino-4-(8-chloro-4-(1-(2-cyclopropoxyacetyl)pyrrolidin-3-yl)-10-fluoro-2-(((2R,7aS)-2-fluorotetrahydro-1H-pyrrolizin-7a(5H)-yl)methoxy)-5,6-dihydro-4H-[1,4]oxazepino[5,6,7-de]quinazolin-9-yl)-7-fluorobenzo[b]thiophene-3-carbonitrile], the IC50 in assay [1] is less than 500 nM; in assay [2], less than 5000 nM; in assay [3] it was less than 100 nM; in assay [4], less than 100 nM; in assay [5], less than 100 nM; in assay [6], less than 5000 nM. Moreover, in assay [7], the IC50 was less than 100 nM.
